Legend:
[1] = test system: stage 1 NOS1::GFP enteric ganglioids; experiment: NO neuron induction in stage 1 enteric ganglioids measured by flow cytometry (NOS1::GFP); format: cell-based, human; settings: for NO neuron induction / NO neuron proportions: RTK ligand treatment, stage 1 enteric ganglioids
Excerpt: (§1) To evaluate the potential of hPSC-derived cultures to model human ENS development, we set out to define the mechanism of NO neuron specification in vitro. Searching for pathways that regulate NO neuron differentiation, we performed a high-throughput small molecule screen. Identifying distinct pathways and chemical modulators that promote NO neuron induction could provide insights on NO neuron development and offer a strategy for the derivation of NO neuron enriched ENS cultures. • To identify compounds that induce NO neuron differentiation, we treated enteric crestospheres with 1694 compounds in the Selleck inhibitor library™ and identified 12 hit compounds that increased the proportion of NOS1^+ neurons by at least eight folds (FIG. 6A, FIGS. S25A and B). FIG. S25 data not shown, but it describes that small molecule high-throughput screening identifies compounds that enrich NO neurons in hESC-derived ENS cultures. […] After clustering the predicted protein targets, common patterns emerged for a subset of compounds.
To determine the mechanism by which PP121 induced NO neuron enrichment in ganglioids, we used a combination of pharmacological and genetic approaches. […] Our crestosphere snRNA-seq analysis confirmed the expression of PDGFRA, PDGFRB, ERBB2 and ERBB3 while the mRNA for VEGFRs were not detectable (FIG. 6L). We evaluated the induction efficiency of NO neurons in response to PDGF (PDGFR agonist), sunitinib (PDGFR and VEGFR antagonist), NRG1 (ERBBs agonist) and sapitinib (ERBBs antagonist) (FIG. 6M). […] To genetically confirm the role of PDGFR signaling in NO neuron induction, we used CRISPR-Cas9 to knock-out PDGFRA and PDGFRB in our enteric crestospheres and analyzed the percentage of NO neurons in stage 1 ganglioids. NO neurons were […] in both PDGFRA and PDGFRB knock-out cultures further confirming the PP121 mechanism of action (FIGS. 6O and P).

mouse colon = experiment: Ex vivo colonic motility assay (organ bath, GIMM); settings: for CMMC intervals at the 75th percentile relative to the untreated condition: five consecutive 10-min acquisitions, mouse colon ex vivo
[2] = test system: H9 hESC-derived enteric crestospheres (NOS1+ neurons); experiment: High-throughput screening to identify compounds that enrich NO neurons; format: cell-based, human; settings: 1694 compounds, 1 μM, D15-D20, NOS1 staining at day 40
Excerpt: as §1
Day 15 H9 hESC-derived enteric crestospheres were dissociated into single cells (accutase, Stemcell Technologies, 07920, 30 min, 37° C.), resuspended in ENC medium and were transferred into 384-well plates. Plates were incubated for 2 hours for cells to attach. […]

EGFRs = settings: cited from earlier work
[3] = test system: stage 1 enteric ganglioids; experiment: PP121 vs control gene expression correlation (snRNA-seq); format: cell-based, human
Excerpt: To compare PP121 treated and untreated stage 1 enteric ganglioids in single cell resolution, we performed snRNA-seq and combined both datasets. […] FIG. S26 data not shown, but it describes PP121 treatment enriches NO neurons without affecting their overall cellular diversity.
To compare the gene expression of control and PP121 treated cell types, neuronal subtypes and NO neuron subtypes, a subset dataset of each cell type and subtype annotation was first created. For each subset, the non-imputed average expression of all genes was then calculated for the control and PP121 treated cells using the “AverageExpression” function and natural log transformed for plotting. R^2 values comparing the control and PP121 natural log expression values were calculated from linear modeling using the “y ˜x” formula. cFOS expression screening

PDGFRs = settings: cited from earlier work
VEGFRs = settings: cited from earlier work
[4] = test system: hESC-derived stage 2 enteric ganglioid NO neurons; settings: cFOS flow cytometry, cultures treated with epinephrine
[5] = test system: enteric ganglioid neurons; settings: MEA neuronal firing measurements
[6] = 6-min treatment, all five replicates

PDGF
NO neuron induction / NO neuron proportions [1]: lower

Cc1cccc(C#Cc2ccccc2)n1 [MPEP]
CMMC intervals at the 75th percentile relative to the untreated condition (mouse colon): promising effects on lowering CMMC intervals

Nc1ncnc2c1c(-c1cnc3[nH]ccc3c1)nn2C1CCCC1 [PP121]
NOS1::GFP induction efficiency by treatment window ([1]; five-day treatment at various time points, GFP signal in stage 1 ganglioids): highest induction efficiency for cells treated during day 15-20
NO neuron induction efficiency, dose dependence ([1]; flow cytometry): dose-dependent effect
increase of the proportion of NOS1+ neurons relative to vehicle (DMSO) [2]: highest % NOS1^+ fold increase in this subset of compounds
inhibitory activity on EGFRs (EGFRs): known inhibitory activity
abundance of neuronal subtypes ([3]; merged control and PP121 treated neurons, snRNA-seq): enriched cultures for neuronal subtypes EN D and H
abundance of nitrergic neuron subtypes ([3]; merged control and PP121 treated nitrergic neurons): enrichment for Nitrergic B
inhibitory activity on PDGFRs (PDGFRs): known inhibitory activity
inhibitory activity on VEGFRs (VEGFRs): known inhibitory activity

O=C1CCc2ccc(OCCCCN3CCN(c4cccc(Cl)c4Cl)CC3)cc2N1 [aripiprazole]
CMMC intervals at the 75th percentile relative to the untreated condition (mouse colon): promising effects on lowering CMMC intervals

CNC[C@H](O)c1ccc(O)c(O)c1 [Epinephrine, epinephrine]
neuronal cFOS expression [4]: induced neuronal cFOS expression
electrical firing of ganglioid neurons [5]: increased electrical firing

O=C1CCC[C@@H]2[C@H]3CCCN4CCC[C@@H](CN12)[C@@H]34 [matrine]
CMMC intervals at the 75th percentile relative to the untreated condition (mouse colon): promising effects on lowering CMMC intervals

Cc1cccc([C@H](C)c2cnc[nH]2)c1C [dexmedetomidine]
average duration of LCEs (mouse colon; [6]): increasing trend in their average duration
total number of longitudinal contractile events (LCEs) (mouse colon; [6]): decrease in the total number of LCEs
effects on LCEs after the drug removal (mouse colon; Krebs wash after drug): reversed after the drug removal
effects on LCEs with L-NAME co-treatment (mouse colon; L-NAME co-treatment): blocked by L-NAME co-treatment
effect on CMMC intervals with simultaneous L-NAME (mouse colon; dexmedetomidine+L-NAME simultaneously): absent
CMMC intervals at the 75th percentile relative to the untreated condition (mouse colon): promising effects on lowering CMMC intervals
CMMC intervals (mouse colon; sequential 6-min acquisitions, five sample pairs, drug alone): decreased CMMC intervals in four out of five colon samples
slow waves (SW) (mouse colon; sequential drug treatment): not affected

CNC(=O)CN1CCC(Oc2cc3c(Nc4cccc(Cl)c4F)ncnc3cc2OC)CC1 [sapitinib]
NO neuron induction / NO neuron proportions [1]: no significant effect

Reference: patent US20250099508A1, “SYSTEMS, CELL LINES AND METHODS OF PRODUCING AND USING THE SAME” (THE REGENTS OF THE UNIVERSITY OF CALIFORNIA, priority 2022, published 2025)
